The values below come from PMC6385203, “Mutations in the palm domain disrupt modulation of acid-sensing ion channel 1a currents by neuropeptides” (Scientific Reports, 2019).

Structures are written as SMILES. Peptide text beside a SMILES is read from it.

This assay deals with T1, ASIC1a N416C (Homo sapiens, UniProt P78348, N416C).
T1 construct: expressed in transfected cells; host or cells: Xenopus laevis oocytes injected with cRNA
T1 sequence (P78348 1-528 N416C): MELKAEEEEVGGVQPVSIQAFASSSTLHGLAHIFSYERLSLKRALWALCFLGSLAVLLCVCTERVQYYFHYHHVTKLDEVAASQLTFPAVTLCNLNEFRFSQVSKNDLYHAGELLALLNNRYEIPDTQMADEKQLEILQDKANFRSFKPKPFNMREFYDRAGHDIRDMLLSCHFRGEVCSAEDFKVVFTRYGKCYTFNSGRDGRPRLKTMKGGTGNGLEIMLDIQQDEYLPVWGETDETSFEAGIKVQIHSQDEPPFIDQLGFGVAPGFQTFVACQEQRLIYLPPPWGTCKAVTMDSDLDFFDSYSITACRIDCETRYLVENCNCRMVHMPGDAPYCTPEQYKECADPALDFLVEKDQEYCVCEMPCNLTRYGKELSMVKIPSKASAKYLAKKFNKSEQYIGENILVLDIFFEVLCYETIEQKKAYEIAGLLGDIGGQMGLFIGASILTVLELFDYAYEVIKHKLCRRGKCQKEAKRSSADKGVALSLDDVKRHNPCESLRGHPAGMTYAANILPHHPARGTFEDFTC
Put plainly: Disappearance of FRRFa-induced Isust on washout, N416C. The settings on record: washout after 50 μM FRRFa 45 s, n = 9. It counts as cell-based. The method, then: Figure 6 Mutations of the palm change FRRFa modulation of ASIC1a. Mutants containing “-ET” in their name had been exposed during 3 min to 1 mM MTSET prior to the experiment. (a) Representative current traces of the mutant E418C in the absence and presence of 50 μM FRRFa. (b) Bar graph of the Isust/Ipeak ratio induced by pH5 of WT and mutants as indicated (n = 5–41). For (b,g–i) *p < 0.05; **p < 0.01, ***p < 0.001, ****p < 0.0001, different from WT. (c) Ratio of 50 μM FRRFa-induced increase in Isust/Ipeak (n = 5–41). (d) Ratio of 500 μM FRRFa-induced increase in Isust/Ipeak (n = 5–11). For (b–d) ^#p < 0.05; ^##p < 0.01; ^###p < 0.001; ^####p < 0.0001; ratio different from the ratio in WT. (e) FRRFa concentration-response curve of the Isust/Ipeak current ratio induced by pH5 in oocytes expressing N416C, n = 8. The WT curve is shown for comparison (n = 7–11). (f) Time course of disappearance of the FRRFa-induced sustained current in the N416C mutant and in WT. 50 μM FRRFa was applied for 45 s, and then washed out. […]
Electrophysiological measurements were performed 1–2 days after cRNA injection. Ion currents were recorded using two-electrode voltage-clamp at a holding potential of −60 mV with a Dagan TEV-200 amplifier (Minneapolis, MN). […] The amplitude of the sustained current was measured in the last two seconds of the pH5 perfusion. […]

As to `N=C(N)NCCC[C@H](NC(=O)[C@H](CCCNC(=N)N)NC(=O)[C@@H](N)Cc1ccccc1)C(=O)N[C@@H](Cc1ccccc1)C(N)=O` [FRRFa, Phe-Arg-Arg-Phe-amide] (H-FRRF-NH2), the dissociation rate constant (koff) worked out at 0.027 ± 0.003 s⁻¹.
